Reference: US8637523B2, “Compounds for the reduction of beta-amyloid production” (Bristol-Myers Squibb Company, priority 2010, dated 2014)

The compounds below were run on Aβ42 (assay: Cellular assay for inhibition of Aβ1-42 production (H4 APP751 SWE clone 8.20)). Settings: 19 h, H4 APP751 SWE clone 8.20 cells, 19 h incubation; read-out: Activity Rating (Aβ42 cellular IC50), class symbol.
Type: cell-based
Method in brief: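 Viewlux signal read-out; IC50 by curve fit. Sandwich: 565 anti-Aβ42 neoepitope (Wallac conjugate, 0.8 ng/well) + 26D6 anti-N-terminus (APC, 75 ng/well), in Tris-HCl 40 mM pH 7.4/0.2% BSA, o/n 4 °C. Cells exposed to compound 19 h, 37 °C, 5% CO2.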

Row | Compound | IC50
1 | N#Cc1ccc2cc1OCCCCNc1nc(nc3c1CCC3c1ccccc1)N2 (stereo not drawn) [Example 23A, 7-cyano-18-phenyl-10,11,12,13,14,16,17,18-octahydro-15,2-(azeno)-8,4-(metheno)cyclopenta[h][1,6,10,12]oxatriazacycloheptadecine] | 0.01 to 0.1 µM
2 | Cc1ncnn1-c1ccc2cc1OC/C=C\CN(C)c1nc(nc3c1CCC3c1ccccc1)N2 (stereo not drawn) [Example 41B, (11Z)-14-methyl-7-(5-methyl-1H-1,2,4-triazol-1-yl)-18-phenyl-10,13,14,16,17,18-hexahydro-15,2-(azeno)-8,4-(metheno)cyclopenta[h][1,6,10,12]oxatriazacycloheptadecine] | 0.01 to 0.1 µM
3 | CC1C/C=C\COc2cc(ccc2-n2cnc(Cl)c2)Nc2nc(c3c(n2)C(c2ccccc2)CC3)N1 (stereo not drawn) [Example 6B, (11Z)-7-(4-chloro-1H-imidazol-1-yl)-14-methyl-19-phenyl-3,10,13,14,15,17,18,19-octahydro-2,16-(azeno)-8,4-(metheno)cyclopenta[j][1,7,9,13]oxatriazacyclooctadecine] | 0.01 to 0.1 µM
4 | CN1CCCOc2cc(ccc2C#N)Nc2nc3c(c1n2)CCC3c1ccc(F)cc1F (stereo not drawn) [Example 35A, 7-cyano-17-(2,4-difluorophenyl)-13-methyl-11,12,13,15,16,17-hexahydro-10H-14,2-(azeno)-8,4-(metheno)cyclopenta[g][1,5,9,11]oxatriazacyclohexadecine] | 0.01 to 0.1 µM
5 | CN1CCCOc2cc(ccc2-n2cnc(Cl)c2)Nc2nc3c(c1n2)CCC3c1ccccc1 (stereo not drawn) [Example 10A, 7-(4-chloro-1H-imidazol-1-yl)-13-methyl-17-phenyl-11,12,13,15,16,17-hexahydro-10H-14,2-(azeno)-8,4-(metheno)cyclopenta[g][1,5,9,11]oxatriazacyclohexadecine] | 0.01 to 0.1 µM

Further lines, results first:

Row | IC50 | Compound
6 | 0.01 to 0.1 µM | Cc1ncn(-c2ccc3cc2OCCCN(C)c2nc(nc4c2CCC4c2ccccc2)N3)n1 (stereo not drawn) [Example 60B, 13-methyl-7-(3-methyl-1H-1,2,4-triazol-1-yl)-17-phenyl-11,12,13,15,16,17-hexahydro-10H-14,2-(azeno)-8,4-(metheno)cyclopenta[g][1,5,9,11]oxatriazacyclohexadecine]
7 | < 0.01 µM | Cc1ncn(-c2ccc3cc2OCCCNc2nc(nc4c2CCC4c2ccc(F)cc2F)N3)n1 (stereo not drawn) [Example 63A, 17-(2,4-difluorophenyl)-7-(3-methyl-1H-1,2,4-triazol-1-yl)-11,12,13,15,16,17-hexahydro-10H-14,2-(azeno)-8,4-(metheno)cyclopenta[g][1,5,9,11]oxatriazacyclohexadecine]
8 | 0.01 to 0.1 µM | CN1Cc2c(nc3nc2N(C)C/C=C\COc2cc(ccc2C#N)N3)C(c2ccc(F)cc2)C1 (racemic) [Example 74, (11Z)-14,17-dimethyl-7-cyano-19-(4-fluorophenyl)-13,14,16,17,18,19-hexahydro-10H-15,2-(azeno)-8,4-(metheno)pyrido[3,4-h][1,6,10,12]oxatriazacycloheptadecine]
9 | 0.01 to 0.1 µM | Cc1ncn(-c2ccc3cc2OC/C=C\CN(C)c2nc(nc4c2CCC4c2ccc(F)cc2F)N3)n1 (stereo not drawn) [Example 57B, (11Z)-18-(2,4-difluorophenyl)-14-methyl-7-(3-methyl-1H-1,2,4-triazol-1-yl)-10,13,14,16,17,18-hexahydro-15,2-(azeno)-8,4-(metheno)cyclopenta[h][1,6,10,12]oxatriazacycloheptadecine]
10 | 0.01 to 0.1 µM | Cc1ncn(-c2ccc3cc2OCCNCCNc2nc(nc4c2CCC4c2ccc(F)cc2)N3)n1 (single isomer, unassigned) [Example 55B, 19-(4-fluorophenyl)-7-(3-methyl-1H-1,2,4-triazol-1-yl)-11,12,13,14,15,17,18,19-octahydro-10H-16,2-(azeno)-8,4-(metheno)cyclopenta[i][1,4,7,11,13]oxatetraazacyclooctadecine]

Same assay, conditions: 19 h, H4 APP751 SWE clone 8.20 cells, 19 h incubation; unit inferred; read-out: Activity Rating (Aβ42 cellular IC50), numeric value

Row | IC50 | Compound
11 | 0.088 µM | Cc1ncnn1-c1ccc2cc1OCCCCN(C)c1nc(nc3c1CCC3c1ccccc1)N2 (stereo not drawn) [Example 48B, 14-methyl-7-(5-methyl-1H-1,2,4-triazol-1-yl)-18-phenyl-10,11,12,13,14,16,17,18-octahydro-15,2-(azeno)-8,4-(metheno)cyclopenta[h][1,6,10,12]oxatriazacycloheptadecine]
12 | 0.031 µM | CN1CCCOc2cc(ccc2C#N)Nc2nc3c(c1n2)CCC3c1ccccc1 (stereo not drawn) [Example 31B, 7-cyano-β-methyl-17-phenyl-11,12,13,15,16,17-hexahydro-10H-14,2-(azeno)-8,4-(metheno)cyclopenta[g][1,5,9,11]oxatriazacyclohexadecine]

Same assay, conditions: H4 APP751 SWE clone 8.20 cells, 19 h incubation; read-out: Activity Rating (Aβ42 cellular IC50), class symbol

Row | Compound | IC50
13 | Cc1ncnn1-c1ccc2cc1OCC=CCNc1nc(nc3c1CCC3c1ccccc1)N2 (stereo not drawn) [Example 43A, (11E)-7-(5-methyl-1H-1,2,4-triazol-1-yl)-18-phenyl-10,13,14,16,17,18-hexahydro-15,2-(azeno)-8,4-(metheno)cyclopenta[h][1,6,10,12]oxatriazacycloheptadecine] | < 0.01 µM
14 | N#Cc1ccc2cc1OC/C=C/CCc1nc(nc3c1CCC3c1ccccc1)N2 (stereo not drawn) [Example 37B, (11E)-7-cyano-18-phenyl-10,13,14,16,17,18-hexahydro-15,2-(azeno)-8,4-(metheno)cyclopenta[h][1,10,12]oxadiazacycloheptadecine] | 0.01 to 0.1 µM
15 | CN1CC=CCOc2cc(ccc2-n2cnc(Cl)c2)Nc2nc3c(c1n2)CCC3c1ccccc1 (stereo not drawn) [Example 4B, (11E)-7-(4-chloro-1H-imidazol-1-yl)-14-methyl-18-phenyl-10,13,14,16,17,18-hexahydro-15,2-(azeno)-8,4-(metheno)cyclopenta[h][1,6,10,12]oxatriazacycloheptadecine] | 0.01 to 0.1 µM
16 | CN1CC=CCOc2cc(ccc2C#N)Nc2nc3c(c1n2)CCC3c1ccccc1 (stereo not drawn) [Example 29A, (11Z)-7-cyano-14-methyl-18-phenyl-10,13,14,16,17,18-hexahydro-15,2-(azeno)-8,4-(metheno)cyclopenta[h][1,6,10,12]oxatriazacycloheptadecine] | < 0.01 µM
17 | CN1CC=CCOc2cc(ccc2-n2cnc(Cl)c2)Nc2nc3c(c1n2)CCC3c1ccccc1 (stereo not drawn) [Example 4A, (11E)-7-(4-chloro-1H-imidazol-1-yl)-14-methyl-18-phenyl-10,13,14,16,17,18-hexahydro-15,2-(azeno)-8,4-(metheno)cyclopenta[h][1,6,10,12]oxatriazacycloheptadecine] | < 0.01 µM
18 | CN1CCCCOc2cc(ccc2C#N)Nc2nc3c(c1n2)CCC3c1ccc(F)cc1F (single isomer, unassigned) [Example 32A, 7-cyano-18-(2,4-difluorophenyl)-14-methyl-10,11,12,13,14,16,17,18-octahydro-15,2-(azeno)-8,4-(metheno)cyclopenta[h][1,6,10,12]oxatriazacycloheptadecine] | 0.01 to 0.1 µM

Other lines, results leading:

Row | IC50 | Compound
19 | < 0.01 µM | Cc1ncn(-c2ccc3cc2OCCCCNc2nc(nc4c2CCC4c2ccccc2)N3)n1 (stereo not drawn) [Example 49A, 7-(3-methyl-1H-1,2,4-triazol-1-yl)-18-phenyl-10,11,12,13,14,16,17,18-octahydro-15,2-(azeno)-8,4-(metheno)cyclopenta[h][1,6,10,12]oxatriazacycloheptadecine]
20 | < 0.01 µM | Cc1ncnn1-c1ccc2cc1OCC=CCNc1nc(nc3c1CCC3c1ccc(F)cc1F)N2 (stereo not drawn) [Example 54A, (11E)-18-(2,4-difluorophenyl)-7-(5-methyl-1H-1,2,4-triazol-1-yl)-10,13,14,16,17,18-hexahydro-15,2-(azeno)-8,4-(metheno)cyclopenta[h][1,6,10,12]oxatriazacycloheptadecine]
21 | 0.01 to 0.1 µM | (11E)-7-(4-chloro-1H-imidazol-1-yl)-18-phenyl-10,13,14,16,17,18-hexahydro-15,2-(azeno)-8,4-(metheno)cyclopenta[h][1,6,10,12]oxatriazacycloheptadecine [Example 2A]
22 | 0.01 to 0.1 µM | Cc1ncnn1-c1ccc2cc1OCC=CCNc1nc(nc3c1CCC3c1ccc(F)cc1F)N2 (stereo not drawn) [Example 54B, (11E)-18-(2,4-difluorophenyl)-7-(5-methyl-1H-1,2,4-triazol-1-yl)-10,13,14,16,17,18-hexahydro-15,2-(azeno)-8,4-(metheno)cyclopenta[h][1,6,10,12]oxatriazacycloheptadecine]

Same assay, conditions: H4 APP751 SWE clone 8.20 cells, 19 h incubation; unit inferred; read-out: Activity Rating (Aβ42 cellular IC50), numeric value

Row | IC50 | Compound
23 | 0.053 µM | Cc1ncnn1-c1ccc2cc1OCC=CCNc1nc(nc3c1CCC3c1ccccc1)N2 (stereo not drawn) [Example 43B, (11E)-7-(5-methyl-1H-1,2,4-triazol-1-yl)-18-phenyl-10,13,14,16,17,18-hexahydro-15,2-(azeno)-8,4-(metheno)cyclopenta[h][1,6,10,12]oxatriazacycloheptadecine]
24 | 0.023 µM | Fc1ccc(C2CCc3c4nc(nc32)Nc2ccc(-n3cnc(Cl)c3)c(c2)OCC=CCN4)c(F)c1 (stereo not drawn) [Example 15B, (11E)-7-(4-chloro-1H-imidazol-1-yl)-18-(2,4-difluorophenyl)-10,13,14,16,17,18-hexahydro-15,2-(azeno)-8,4-(metheno)cyclopenta[h][1,6,10,12]oxatriazacycloheptadecine]
25 | 0.004 µM | Cc1ncn(-c2ccc3cc2OCC=CCNc2nc(nc4c2CCC4c2ccccc2)N3)n1 (stereo not drawn) [Example 39A, (11Z)-7-(3-methyl-1H-1,2,4-triazol-1-yl)-18-phenyl-10,13,14,16,17,18-hexahydro-15,2-(azeno)-8,4-(metheno)cyclopenta[h][1,6,10,12]oxatriazacycloheptadecine]
26 | 0.0066 µM | Cc1ncnn1-c1ccc2cc1OCC=CCNc1nc(nc3c1CCC3c1ccccc1)N2 (stereo not drawn) [Example 42A, (11Z)-7-(5-methyl-1H-1,2,4-triazol-1-yl)-18-phenyl-10,13,14,16,17,18-hexahydro-15,2-(azeno)-8,4-(metheno)cyclopenta[h][1,6,10,12]oxatriazacycloheptadecine]
27 | 0.0039 µM | (11Z)-7-(4-chloro-1H-imidazol-1-yl)-18-phenyl-10,13,14,16,17,18-hexahydro-15,2-(azeno)-8,4-(metheno)cyclopenta[h][1,6,10,12]oxatriazacycloheptadecine [Example 1A]
